Measured values as given in US20230158015A1, “DRUG COMBINATIONS FOR INHIBITING INFLAMMATION AND SRC KINASE ACTIVATION FOLLOWING INVASIVE SURGICAL PROCEDURES” (SINTETICA S.A., priority 2020, published 2023).

How the values were obtained:
[1] = system: p-Src / total Src; assay: Total Src and p-Src expression in MiaPaCa 2 human pancreatic cancer cell line (Western blot); type: cell-based; details: 10 µM lidocaine, 100 nM methylnaltrexone or both, one hour
Protocol: • P-Src-Tyr416 (GeneTex # GTX81151) 1:2000 in 5% bovine serum albumin, at room temperature, 4 hours • Total Src (CST # 2108S) 1:3000 in 5% bovine serum albumin, at room temperature, 4 hours
Example 11 evaluated the effect of 10 µM lidocaine (L), 100 nM methylnaltrexone (M) and the combination of 10 µM lidocaine + 100 nM methylnaltrexone (L+M) for 1 hour on total Src and p-Src expression in a human pancreatic cancer cell line (MiaPaCa 2). Experimental conditions were identical to Example 10.

[2] = system: LPS-challenged C57BL/6 mice; assay: LPS-induced inflammation model, H&E histopathology of lungs and spleen; type: in vivo, mouse
Protocol: (§1) C57BL/6J mice (6-8 weeks) were purchased from Charles River Laboratories (USA) and acclimatized for at least 1 week before use. All mice were housed in a pathogen-free facility. The mice received LPS for 24 hours. Following 24 hours, mice were treated either with lidocaine alone or methylnaltrexone alone or a combination of both, as shown in Table 1.
(§2) At the conclusion of the study, the blood and tissue samples were collected for further study. The serum was used to determine pro-inflammatory cytokines using the LEGENDplex™ mouse inflammation panel (BioLegend, USA) kit followed by flow cytometry. The lungs and spleen tissue samples were used for hematoxylin and eosin (H&E) staining and immunohistochemical analyses for immune cells, including macrophages and natural killer (NK) cells, B cells, T cells, and its subsets. For histopathology and immunohistochemistry (IHC), tissue samples were prepared by cutting 4-µm sections from the paraffin blocks. IHC staining was performed by methods described earlier. The images were captured using bright field microscopy (Nikon Microscope). Two independent investigators evaluated the H&E and all immunohistochemical staining. For slide scoring, each investigator assessed the tissues and gave a score of 0 (no expression) to 4+ (strong uniform expression) as described previously. The data were expressed either as the mean ± SD or mean ± SEM by using Graph Pad Prism software.

[3] = system: p-Src protein; assay: p-Src inhibition by increasing lidocaine doses in human pancreatic cancer cells (Western blot); type: cell-based; details: 30 minutes of treatment, 0-100 µM tested
Protocol: On day 1, pancreatic cancer cells were cultured until 300,000 cells per well in a 6 well plate were obtained. On day 2, the cells were treated with 0, 0.5, 1,5, 10, 15, 30, 50 and 100 µM lidocaine for 30 minutes. Plates were then collected and washed with phosphate buffered saline and stored at -80° C. Cells were subsequently lysed with 100 µl of radioimmunoprecipitation assay buffer with protease and phosphatase buffers.
Protein estimation was done using a Bradford assay under the following conditions: • A Western Blot was stripped with 6 M guanidine hydrochloride after phosphor-Src protein blocking to probe with total Src protein. • 10% SDS-PAGE 10 well Blocking: 5% bovine serum albumin for p-Src blot. • P-Src-Tyr416 (GeneTex GTX81151) Rb: 1:1000 in 5% bovine serum albumin, Overnight. • Total Src (Cell Signaling Technology 2108S ) Rb mAb 1:1000 overnight in 5% milk. • GAPDH (Invitrogen# AM4300) : 1:5000 in 5% milk overnight. • Wash: 4x for 5 minutes each with 1x TBST. • Developed using 50% femto for the p-Src protein and homemade ECL substrate for total Src and GAPDH protein.

[4] = system: LPS-induced serum inflammatory cytokines; assay: LPS-induced inflammation model, serum inflammatory cytokines (LEGENDplex, flow cytometry); type: in vivo, mouse; details: serum of treated mice
Protocol: as §1, §2
Gram-negative bacterial infections are the main cause of acute lung injury, and LPS, which is the main component of the Gram-negative bacteria cell wall, is the major stimulus for the release of inflammatory mediators. Therefore, we measured the effect of lidocaine alone, methylnaltrexone alone, or a combination of lidocaine and methylnaltrexone on LPS-induced serum inflammatory cytokines profiles. Mouse inflammatory cytokines were measured in serum of control and LPS-challenged mice treated with drugs as described in Table 1, using the LEGENDplex™ mouse inflammation panel (BioLegend, USA) kit followed by flow cytometry as per manufacturer’s specifications. […] However, serum tumor necrosis factor-alpha (TNF-α), monocyte chemoattractant protein 1 (MCP- 1), interleukin 10 (IL-10), interleukin 6 (IL-6), and interleukin 17A (IL-17A) levels were found decreased in mice challenged with LPS and treated with lidocaine and methylnaltrexone together (FIGS. 14C-G). IL-1, IL-6, IL-17A, MCP-1, and TNFα are pro- inflammatory cytokines associated with inflammatory signaling. Taken together, these findings indicate that combined treatment of lidocaine and methylnaltrexone has the potential to suppress inflammatory signaling.

[5] = system: Src phosphorylation at tyrosine 419; details: cited from earlier work

CCN(CC)CC(=O)Nc1c(C)cccc1C [lidocaine, 2-diethylaminoaceto-2′,6′-xylidide]
p-Src [1]: attenuated p-Src | H&E staining, histopathology of lungs ([2]; LPS challenged mice, lungs): perivascular edema and accumulation of mixed cell infiltration within blood, and lymphatic vessels | histological examination of spleen ([2]; LPS challenged mice, spleen): increased number of erythrocytes in the red pulp, along with mild edema | LPS-induced inflammation (overall conclusion) ([2]; mouse model, drug alone): partially mitigate | dose from which the level of p-Src protein is reduced [3]: ≥ 10 µM | serum interferon-gamma (IFNγ) level [4]: insignificant changes | serum interleukin 1 alpha (IL-1α) level [4]: insignificant changes | decrease in TNF-α-induced Src phosphorylation ([5]; co-incubation with TNF-α and 10 µM lidocaine, p=0.012): 73% | decrease in Src phosphorylation at tyrosine 419 ([5]; lidocaine 1 nm-100 µM, 20 minutes, Kruskal-Wallis p=0.146): did not reach statistical significance
